This note sets out measurements from US11130793B2, “GLP-1/GLP-2 dual agonists” (Zealand Pharma A/S, priority 2016, dated 2021).

SMILES strings stand for the structures. Like-named read-outs stand apart in the source and are kept apart here. Square brackets hold non-standard residues; d marks the D form. Peptide text beside a SMILES is read from it. Aib = CC(C)(N)C(=O)O Bounds are passed on as bounds.

The term EC50 denotes the concentration needed to bring the measured effect to its halfway point. Broadly, the solubility is how much of the substance goes into solution per volume.

Data set [1] addresses T1, human GLP-2 receptor (Homo sapiens, UniProt O95838, D470N).
T1 sequence (O95838 1-553 D470N): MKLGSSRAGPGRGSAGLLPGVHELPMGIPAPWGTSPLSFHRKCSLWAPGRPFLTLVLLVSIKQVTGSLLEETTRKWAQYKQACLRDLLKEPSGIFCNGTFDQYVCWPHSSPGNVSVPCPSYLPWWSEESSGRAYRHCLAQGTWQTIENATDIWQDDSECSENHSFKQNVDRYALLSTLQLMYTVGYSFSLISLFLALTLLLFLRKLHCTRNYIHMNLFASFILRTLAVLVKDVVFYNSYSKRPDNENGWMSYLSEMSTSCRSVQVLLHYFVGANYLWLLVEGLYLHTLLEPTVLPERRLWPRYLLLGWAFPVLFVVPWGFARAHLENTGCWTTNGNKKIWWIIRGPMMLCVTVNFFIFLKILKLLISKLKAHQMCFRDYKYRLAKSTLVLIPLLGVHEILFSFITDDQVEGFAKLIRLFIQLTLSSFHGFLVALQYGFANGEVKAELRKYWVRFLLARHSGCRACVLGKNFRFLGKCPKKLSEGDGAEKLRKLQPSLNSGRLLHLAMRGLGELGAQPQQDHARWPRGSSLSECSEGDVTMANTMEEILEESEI
Kind of data set: GLP-2 receptor potency assay (cAMP AlphaScreen, HEK293 cells stably expressing GLP-2R). The conditions noted are these: cAMP response, HEK293 cells expressing human GLP-2R. Format: cell-based. The method, boiled down: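 HEK293 cells stably expressing human GLP-2R (G418-selected clone); intracellular cAMP measured by AlphaScreen. Responses normalized to positive and vehicle controls; EC50 and maximal response from 4-parameter logistic fit.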

Data set [2] deals with T2, human GLP-1 receptor (Homo sapiens, UniProt P43220).
T2 construct: expressed in transfected cells
T2 sequence (P43220 24-463): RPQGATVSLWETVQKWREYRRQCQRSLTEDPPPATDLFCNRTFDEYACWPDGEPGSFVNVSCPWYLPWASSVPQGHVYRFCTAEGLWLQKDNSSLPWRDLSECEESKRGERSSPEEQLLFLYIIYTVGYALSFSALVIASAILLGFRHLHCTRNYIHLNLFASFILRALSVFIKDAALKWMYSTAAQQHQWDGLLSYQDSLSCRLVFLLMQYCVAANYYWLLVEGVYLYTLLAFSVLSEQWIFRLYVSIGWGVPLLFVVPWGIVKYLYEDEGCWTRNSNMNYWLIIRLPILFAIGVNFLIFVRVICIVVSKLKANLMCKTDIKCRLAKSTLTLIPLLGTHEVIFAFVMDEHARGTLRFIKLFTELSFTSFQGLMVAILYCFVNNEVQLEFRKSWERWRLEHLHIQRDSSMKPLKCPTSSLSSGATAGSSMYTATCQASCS
Kind of data set: GLP-1 receptor potency assay (cAMP AlphaScreen, HEK293 cells stably expressing GLP-1R). Format: cell-based. The note with it: cAMP response, HEK293 cells expressing human GLP-1R; read-out: EC50 GLP-1. The essentials:
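A HEK293 clone stably expressing cloned human GLP-1R (G418-selected) was stimulated with compound. Intracellular cAMP was measured by AlphaScreen. Responses were normalized to positive and vehicle controls, and EC50 and maximal response were fitted by 4-parameter logistic regression.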
(Alpha assays give light when donor and acceptor beads are brought close together.)

Data set [3] can be described thus: Solubility assessment by turbidity absorbance at 325 nm. Format: physicochemical. The note with it: 1 mg/ml peptide. Here is the method: A stock solution of the test peptide (2 mg/ml; determined from the weighed amount of peptide) in demineralized water adjusted to pH 2.5 with HCl was prepared, and aliquots were diluted 1:1 in 100 mM acetate buffer (pH 4.0 and pH 5.0), 100 mM histidine buffer (pH 6.0 and pH 7.0) and 100 mM phosphate buffer (pH 6.0, pH 7.0 and pH7.5), respectively, and loaded in a standard flat-bottom, non-sterile 96-well UV Microplate. The absorbance of samples (single samples, n=1) at 280 and 325 nm was measured in an absorbance-based plate reader, which was preheated to ambient temperature (typically 25° C.).

The mark [4] stands for this setting: 100 mM acetate buffer pH 4.0, ambient temperature, read-out: Solubility, Acetate buffer pH 4.
Setting [5] is: 100 mM acetate buffer pH 5.0, ambient temperature, read-out: Solubility, Acetate buffer pH 5.
[6] abbreviates: 100 mM histidine buffer pH 6.0, ambient temperature, read-out: Solubility, Histidine buffer pH 6.
Where [7] appears, read: 100 mM histidine buffer pH 7.0, ambient temperature, read-out: Solubility, Histidine buffer pH 7.
Setting [8] is: 100 mM phosphate buffer pH 6.0, ambient temperature, read-out: Solubility, Phosphate buffer pH 6.
Setting [9] is: 100 mM phosphate buffer pH 7.0, ambient temperature, read-out: Solubility, Phosphate buffer pH 7.
[10] abbreviates: 100 mM phosphate buffer pH 7.5, ambient temperature, read-out: Solubility, Phosphate buffer pH 7.5.

As to `CC[C@H](C)[C@H](NC(=O)[C@H](CC(C)C)NC(=O)[C@H](Cc1c[nH]c2ccccc12)NC(=O)[C@H](C)NC(=O)[C@@H](NC(=O)[C@H](Cc1ccccc1)NC(=O)[C@H](CC(=O)O)NC(=O)[C@H](CCCNC(=N)N)NC(=O)[C@H](C)NC(=O)[C@H](C)NC(=O)[C@H](CCC(N)=O)NC(=O)[C@H](CCC(=O)O)NC(=O)[C@H](CC(=O)O)NC(=O)[C@H](CC(C)C)NC(=O)[C@@H](NC(=O)[C@@H](NC(=O)[C@H](C)NC(=O)[C@H](CC(C)C)NC(=O)[C@H](CCC(=O)O)NC(=O)[C@H](CO)NC(=O)[C@@H](NC(=O)[C@H](Cc1ccccc1)NC(=O)[C@@H](NC(=O)CNC(=O)[C@H](CCC(=O)O)NC(=O)C(C)(C)NC(=O)[C@@H](N)Cc1c[nH]cn1)[C@@H](C)O)[C@@H](C)O)[C@@H](C)O)[C@@H](C)CC)[C@@H](C)CC)C(=O)N[C@@H](C)C(=O)N[C@@H](Cc1c[nH]cn1)C(=O)N[C@@H](CCCCN)C(=O)N[C@H](C(=O)N[C@H](C(=O)N[C@@H](CC(=O)O)C(=O)O)[C@@H](C)O)[C@@H](C)CC` [Compound 3] (H-H[Aib]EGTFTSELATILDEQAARDFIAWLIAHKITD-OH), the EC50 came to 0.036 nM in data set [1] and 0.0074 nM in data set [2]. For the same compound, the solubility was no less than 1000 µg/mL in data set [3] (setting [4]); less than 1000 µg/mL in data set [3] (setting [5]); no less than 1000 µg/mL in data set [3] (setting [6]); no less than 1000 µg/mL in data set [3] (setting [7]); no less than 1000 µg/mL in data set [3] (setting [8]); no less than 1000 µg/mL in data set [3] (setting [9]). The solubility in data set [3] (setting [10]) is no less than 1000 µg/mL.
In the case of `CC[C@H](C)[C@H](NC(=O)[C@H](Cc1ccccc1)NC(=O)[C@H](CC(=O)O)NC(=O)[C@H](CCCNC(=N)N)NC(=O)[C@H](C)NC(=O)[C@H](C)NC(=O)[C@H](CCC(N)=O)NC(=O)[C@H](CCC(=O)O)NC(=O)[C@H](CC(=O)O)NC(=O)[C@H](CC(C)C)NC(=O)[C@@H](NC(=O)[C@@H](NC(=O)[C@H](C)NC(=O)[C@H](CC(C)C)NC(=O)[C@H](CCC(=O)O)NC(=O)[C@H](CO)NC(=O)[C@@H](NC(=O)[C@H](Cc1ccccc1)NC(=O)[C@H](CO)NC(=O)CNC(=O)[C@H](CCC(=O)O)NC(=O)C(C)(C)NC(=O)[C@@H](N)Cc1c[nH]cn1)[C@@H](C)O)[C@@H](C)O)[C@@H](C)CC)C(=O)N[C@@H](C)C(=O)N[C@@H](Cc1c[nH]c2ccccc12)C(=O)N[C@@H](CC(C)C)C(=O)N[C@H](C(=O)N[C@@H](CCC(=O)O)C(=O)N[C@@H](Cc1c[nH]cn1)C(=O)N[C@@H](CCCCN)C(=O)N[C@H](C(=O)N[C@H](C(=O)N[C@@H](CC(=O)O)C(=O)O)[C@@H](C)O)[C@@H](C)CC)[C@@H](C)CC` [Compound 4] (H-H[Aib]EGSFTSELATILDEQAARDFIAWLIEHKITD-OH), the values for the EC50 in data set [1] and in data set [2] were 0.044 nM and 0.015 nM, respectively. Also, the solubility was no less than 1000 µg/mL in data set [3] (setting [4]); less than 1000 µg/mL in data set [3] (setting [5]); no less than 1000 µg/mL in data set [3] (setting [6]); no less than 1000 µg/mL in data set [3] (setting [7]); no less than 1000 µg/mL in data set [3] (setting [8]); no less than 1000 µg/mL in data set [3] (setting [9]). Moreover, the solubility in data set [3] (setting [10]) is no less than 1000 µg/mL.
On to `CC[C@H](C)[C@H](NC(=O)[C@H](Cc1ccccc1)NC(=O)[C@H](CC(=O)O)NC(=O)[C@H](CCCNC(=N)N)NC(=O)[C@H](C)NC(=O)[C@H](C)NC(=O)[C@H](CCC(N)=O)NC(=O)[C@H](CCC(=O)O)NC(=O)[C@H](CC(=O)O)NC(=O)[C@H](CC(C)C)NC(=O)[C@@H](NC(=O)[C@@H](NC(=O)[C@H](C)NC(=O)[C@H](CC(C)C)NC(=O)[C@H](CCC(=O)O)NC(=O)[C@H](CO)NC(=O)[C@@H](NC(=O)[C@H](Cc1ccccc1)NC(=O)[C@H](CO)NC(=O)CNC(=O)[C@H](CCC(=O)O)NC(=O)C(C)(C)NC(=O)[C@@H](N)Cc1c[nH]cn1)[C@@H](C)O)[C@@H](C)O)[C@@H](C)CC)C(=O)N[C@@H](C)C(=O)N[C@@H](Cc1c[nH]c2ccccc12)C(=O)N[C@@H](CC(C)C)C(=O)N[C@H](C(=O)N[C@@H](Cc1c[nH]cn1)C(=O)N[C@@H](Cc1c[nH]cn1)C(=O)N[C@@H](CCCCN)C(=O)N[C@H](C(=O)N[C@H](C(=O)N[C@@H](CC(=O)O)C(=O)O)[C@@H](C)O)[C@@H](C)CC)[C@@H](C)CC` [Compound 6] (H-H[Aib]EGSFTSELATILDEQAARDFIAWLIHHKITD-OH), for which the EC50 came to 0.047 nM in data set [1] and 0.014 nM in data set [2]. For the same compound, the solubility in data set [3] (setting [4]) was no less than 1000 µg/mL; in data set [3] (setting [5]), less than 1000 µg/mL; in data set [3] (setting [6]), less than 1000 µg/mL; in data set [3] (setting [7]), no less than 1000 µg/mL; in data set [3] (setting [8]) it was less than 1000 µg/mL; in data set [3] (setting [9]) it was no less than 1000 µg/mL. In data set [3] (setting [10]), the solubility was less than 1000 µg/mL.
On to `CC[C@H](C)[C@H](NC(=O)[C@H](Cc1ccccc1)NC(=O)[C@H](CC(=O)O)NC(=O)[C@H](CCCNC(=N)N)NC(=O)[C@H](C)NC(=O)[C@H](C)NC(=O)[C@H](CCC(N)=O)NC(=O)[C@H](CCC(=O)O)NC(=O)[C@H](CC(=O)O)NC(=O)[C@H](CC(C)C)NC(=O)[C@@H](NC(=O)[C@@H](NC(=O)[C@H](C)NC(=O)[C@H](CC(C)C)NC(=O)[C@H](CCC(=O)O)NC(=O)[C@H](CO)NC(=O)[C@@H](NC(=O)[C@H](Cc1ccccc1)NC(=O)[C@H](CO)NC(=O)CNC(=O)[C@H](CCC(=O)O)NC(=O)C(C)(C)NC(=O)[C@@H](N)Cc1c[nH]cn1)[C@@H](C)O)[C@@H](C)O)[C@@H](C)CC)C(=O)N[C@@H](C)C(=O)N[C@@H](Cc1c[nH]c2ccccc12)C(=O)N[C@@H](CC(C)C)C(=O)N[C@H](C(=O)N[C@@H](Cc1ccc(O)cc1)C(=O)N[C@@H](Cc1c[nH]cn1)C(=O)N[C@@H](CCCCN)C(=O)N[C@H](C(=O)N[C@H](C(=O)N[C@@H](CC(=O)O)C(=O)O)[C@@H](C)O)[C@@H](C)CC)[C@@H](C)CC` [Compound 7] (H-H[Aib]EGSFTSELATILDEQAARDFIAWLIYHKITD-OH), for which the EC50 in data set [1] came to 0.11 nM; in data set [2], 0.017 nM. For the same compound, the solubility in data set [3] (setting [4]) is no less than 1000 µg/mL; in data set [3] (setting [5]), less than 1000 µg/mL; in data set [3] (setting [6]), less than 1000 µg/mL; in data set [3] (setting [7]) it was no less than 1000 µg/mL; in data set [3] (setting [8]), less than 1000 µg/mL; in data set [3] (setting [9]), no less than 1000 µg/mL. In data set [3] (setting [10]), the solubility is no less than 1000 µg/mL.
On to `CC[C@H](C)[C@H](NC(=O)[C@H](Cc1ccccc1)NC(=O)[C@H](CC(=O)O)NC(=O)[C@H](CCCNC(=N)N)NC(=O)[C@H](C)NC(=O)[C@H](C)NC(=O)[C@H](CCC(N)=O)NC(=O)[C@H](CCC(=O)O)NC(=O)[C@H](CC(=O)O)NC(=O)[C@H](CC(C)C)NC(=O)[C@@H](NC(=O)[C@@H](NC(=O)[C@H](C)NC(=O)[C@H](CC(C)C)NC(=O)[C@H](CCC(=O)O)NC(=O)[C@H](CO)NC(=O)[C@@H](NC(=O)[C@H](Cc1ccccc1)NC(=O)[C@H](CO)NC(=O)CNC(=O)[C@H](CCC(=O)O)NC(=O)C(C)(C)NC(=O)[C@@H](N)Cc1c[nH]cn1)[C@@H](C)O)[C@@H](C)O)[C@@H](C)CC)C(=O)N[C@@H](C)C(=O)N[C@@H](Cc1c[nH]c2ccccc12)C(=O)N[C@@H](CC(C)C)C(=O)N[C@H](C(=O)N[C@@H](CC(C)C)C(=O)N[C@@H](Cc1c[nH]cn1)C(=O)N[C@@H](CCCCN)C(=O)N[C@H](C(=O)N[C@H](C(=O)N[C@@H](CC(=O)O)C(=O)O)[C@@H](C)O)[C@@H](C)CC)[C@@H](C)CC` [Compound 8] (H-H[Aib]EGSFTSELATILDEQAARDFIAWLILHKITD-OH), for which the EC50 came out at 0.084 nM in data set [1] and 0.021 nM in data set [2]. The solubility in data set [3] (setting [4]) is no less than 1000 µg/mL; in data set [3] (setting [5]), less than 1000 µg/mL; in data set [3] (setting [6]), less than 1000 µg/mL; in data set [3] (setting [7]) it was no less than 1000 µg/mL; in data set [3] (setting [8]), less than 1000 µg/mL; in data set [3] (setting [9]) it was no less than 1000 µg/mL. Besides, the solubility in data set [3] (setting [10]) was no less than 1000 µg/mL.
